Data as given in ChEMBL document CHEMBL1149220, “1-(2-Naphthyl)-1H-pyrazole-5-carboxylamides as potent factor Xa inhibitors. Part 2: A survey of P4 motifs” (Bioorg Med Chem Lett, 2004).

Columns and labels:
Coagulation factor X [1] = target: T1, Coagulation factor X (Homo sapiens, UniProt P00742); assay: Inhibitory concentration against human Coagulation factor X
Coagulation factor X [2] = target: T1, Coagulation factor X; assay: In vitro anticoagulant potency measured in human plasma by thrombin generation (TG) assay expressed as 2 x TG; assay type: functional, cell-free
Coagulation factor X [3] = target: T1, Coagulation factor X; assay: Binding affinity against Coagulation factor X
[4] = Volume of distribution in rat; assay type: ADME, organism-based; details: in vivo
Plasminogen = assay: Inhibitory concentration of compound was determined against Plasmin
Plasminogen, sequence (Q01177 97-581 limits assumed): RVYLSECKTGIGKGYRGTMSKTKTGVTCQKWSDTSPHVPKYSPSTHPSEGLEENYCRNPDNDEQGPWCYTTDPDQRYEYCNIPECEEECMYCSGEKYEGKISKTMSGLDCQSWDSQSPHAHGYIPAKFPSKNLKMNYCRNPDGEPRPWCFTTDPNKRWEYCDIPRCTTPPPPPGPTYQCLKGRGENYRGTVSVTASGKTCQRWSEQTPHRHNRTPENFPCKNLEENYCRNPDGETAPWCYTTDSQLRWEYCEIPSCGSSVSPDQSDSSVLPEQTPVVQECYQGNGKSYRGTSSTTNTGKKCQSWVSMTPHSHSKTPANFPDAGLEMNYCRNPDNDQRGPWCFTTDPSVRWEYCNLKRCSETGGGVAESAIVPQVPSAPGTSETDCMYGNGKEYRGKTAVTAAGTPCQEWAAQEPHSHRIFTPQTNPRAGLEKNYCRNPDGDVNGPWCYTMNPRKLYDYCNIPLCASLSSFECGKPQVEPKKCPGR
Plasminogen, sequence (Q01177 582-812 limits assumed): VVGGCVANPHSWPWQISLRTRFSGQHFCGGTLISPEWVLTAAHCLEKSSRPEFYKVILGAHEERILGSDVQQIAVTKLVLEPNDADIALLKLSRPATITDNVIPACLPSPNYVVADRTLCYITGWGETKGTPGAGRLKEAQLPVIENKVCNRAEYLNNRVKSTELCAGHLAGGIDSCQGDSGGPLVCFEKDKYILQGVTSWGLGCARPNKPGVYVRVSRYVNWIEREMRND

[5] = Bioavailability in rat; assay type: ADME, organism-based; details: in vivo
Kallikrein-1 = Kallikrein-1 (Homo sapiens, UniProt P06870); assay: Inhibitory concentration of compound was determined against kallikrein
Kallikrein-1, sequence (P06870 whole entry): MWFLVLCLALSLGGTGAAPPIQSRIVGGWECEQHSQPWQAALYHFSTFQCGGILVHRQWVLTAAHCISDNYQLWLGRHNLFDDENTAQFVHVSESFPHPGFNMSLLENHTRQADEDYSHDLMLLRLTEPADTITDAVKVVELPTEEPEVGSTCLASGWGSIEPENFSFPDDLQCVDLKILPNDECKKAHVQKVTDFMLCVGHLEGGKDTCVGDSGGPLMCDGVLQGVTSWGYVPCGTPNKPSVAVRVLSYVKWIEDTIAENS

[6] = Half-life determined in rat; assay type: ADME, organism-based; details: in vivo
[7] = target: Tissue-type plasminogen activator (Homo sapiens, UniProt P00750); assay: Inhibitory concentration against tissue type plasminogen activator
Tissue-type plasminogen activator, sequence (P00750 whole entry): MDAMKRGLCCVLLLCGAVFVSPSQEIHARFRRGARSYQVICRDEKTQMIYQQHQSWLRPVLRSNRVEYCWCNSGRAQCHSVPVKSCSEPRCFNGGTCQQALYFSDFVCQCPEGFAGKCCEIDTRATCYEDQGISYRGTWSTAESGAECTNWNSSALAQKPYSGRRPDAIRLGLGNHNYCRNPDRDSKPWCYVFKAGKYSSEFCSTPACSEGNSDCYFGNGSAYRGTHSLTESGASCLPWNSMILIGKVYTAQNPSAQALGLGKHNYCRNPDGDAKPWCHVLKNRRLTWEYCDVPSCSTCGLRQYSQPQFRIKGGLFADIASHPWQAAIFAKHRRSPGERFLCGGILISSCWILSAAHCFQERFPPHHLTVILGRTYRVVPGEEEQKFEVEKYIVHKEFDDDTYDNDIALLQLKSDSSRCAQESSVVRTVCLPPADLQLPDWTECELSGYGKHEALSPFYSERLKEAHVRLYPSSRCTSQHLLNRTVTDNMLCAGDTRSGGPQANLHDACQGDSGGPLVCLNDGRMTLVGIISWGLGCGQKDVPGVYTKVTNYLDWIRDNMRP

Serine protease 1 = Serine protease 1 (Homo sapiens, UniProt P07477); assay: Inhibitory concentration of compound was determined against trypsin
Serine protease 1, sequence (P07477 whole entry): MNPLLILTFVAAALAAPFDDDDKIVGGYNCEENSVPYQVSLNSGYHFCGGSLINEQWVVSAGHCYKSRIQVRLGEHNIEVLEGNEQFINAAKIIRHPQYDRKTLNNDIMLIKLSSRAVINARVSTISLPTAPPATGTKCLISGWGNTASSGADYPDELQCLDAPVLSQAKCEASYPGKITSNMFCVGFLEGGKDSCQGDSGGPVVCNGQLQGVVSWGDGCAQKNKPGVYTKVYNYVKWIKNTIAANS

[8] = Clearance rate in rat; assay type: ADME, organism-based; details: in vivo
[9] = target: Vitamin K-dependent protein C (Homo sapiens, UniProt P04070); assay: Inhibitory concentration of compound was determined against activated protein C (aPC)
Vitamin K-dependent protein C, sequence (P04070 43-197 limits assumed): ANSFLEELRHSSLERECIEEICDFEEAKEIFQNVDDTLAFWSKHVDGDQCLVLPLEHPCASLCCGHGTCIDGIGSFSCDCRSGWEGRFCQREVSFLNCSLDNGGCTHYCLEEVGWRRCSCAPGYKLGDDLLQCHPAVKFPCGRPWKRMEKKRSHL
Vitamin K-dependent protein C, sequence (P04070 212-461 limits assumed): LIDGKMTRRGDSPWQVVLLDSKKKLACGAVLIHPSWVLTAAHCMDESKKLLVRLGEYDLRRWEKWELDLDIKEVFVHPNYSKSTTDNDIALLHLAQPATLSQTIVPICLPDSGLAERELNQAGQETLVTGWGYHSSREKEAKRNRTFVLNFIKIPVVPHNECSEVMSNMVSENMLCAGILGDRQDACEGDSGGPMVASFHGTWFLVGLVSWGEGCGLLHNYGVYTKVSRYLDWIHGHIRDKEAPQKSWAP

Prothrombin = Prothrombin (Homo sapiens, UniProt P00734); assay: Inhibitory concentration of compound was determined against thrombin

T1 sequence (P00742 41-179 limits assumed): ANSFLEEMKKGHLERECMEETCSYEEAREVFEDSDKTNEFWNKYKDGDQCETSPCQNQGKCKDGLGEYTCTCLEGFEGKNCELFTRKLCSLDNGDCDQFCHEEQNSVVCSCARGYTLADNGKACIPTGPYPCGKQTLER
T1 sequence (P00742 235-488 limits assumed): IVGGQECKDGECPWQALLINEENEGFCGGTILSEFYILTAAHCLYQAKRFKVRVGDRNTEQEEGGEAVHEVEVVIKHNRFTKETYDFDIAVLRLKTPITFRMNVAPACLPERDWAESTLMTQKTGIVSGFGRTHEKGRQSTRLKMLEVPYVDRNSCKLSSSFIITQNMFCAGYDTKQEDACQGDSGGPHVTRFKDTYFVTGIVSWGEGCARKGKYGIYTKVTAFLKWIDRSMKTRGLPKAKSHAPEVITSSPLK

IC50 (Coagulation factor X [1]) [µM]	Activity (Coagulation factor X [2]) [µM]	Ki (Coagulation factor X [3]) [µM]	other results	SMILES
0.094				Cc1cc(C(=O)Nc2ccc(-c3ccccn3)cc2F)n(-c2ccc3cc(Cl)ccc3c2)n1
0.131				Cc1cc(C(=O)Nc2ccc(N3CCCCC3)cc2)n(-c2ccc3cc(Cl)ccc3c2)n1
0.001	3	0.0003		Cc1cc(C(=O)Nc2ccc(N3CCOCC3=O)cc2)n(-c2ccc3cc(Cl)ccc3c2)n1
0.002	2.2	0.0024	Vd [4]: 11 L/kg; IC50 (Plasminogen): > 10 µM; bioavailability [5]: 22.8%; IC50 (Kallikrein-1): > 10 µM; half-life [6]: 2.5 h; IC50 [7]: > 10 µM; IC50 (Serine protease 1): > 10 µM; clearance [8]: 51.8 mL/min/kg; IC50 [9]: > 10 µM; IC50 (Prothrombin): > 10 µM	Cc1cc(C(=O)Nc2ccc(-c3ccccc3CN)cc2F)n(-c2cc3ccccc3cc2F)n1
0.013				Cc1cc(C(=O)Nc2ccc(-n3ccnc3CN)cc2F)n(-c2cc3ccccc3cc2F)n1
0.002	> 5	0.0005		Cc1cc(C(=O)Nc2ccc(N3CCOCC3=O)cc2F)n(-c2cc3ccccc3cc2F)n1
0.008	> 5	0.0029		Cc1cc(C(=O)Nc2ccc(-n3ccnc3C)cc2)n(-c2ccc3cc(Cl)ccc3c2)n1
0.081				Cc1cc(C(=O)Nc2ccc(-c3ccccc3S(N)(=O)=O)cn2)n(-c2cc3ccccc3cc2F)n1
0.066				Cc1cc(C(=O)Nc2ccc(C(=O)N3CCCCC3)cc2)n(-c2ccc3cc(Cl)ccc3c2)n1
0.022	5			Cc1cc(C(=O)Nc2ccc(N3CCCN(C)CC3)cc2)n(-c2ccc3cc(Cl)ccc3c2)n1
0.014				Cc1cc(C(=O)Nc2ccc(-c3ccccc3S(C)(=O)=O)cc2F)n(-c2cc3ccccc3cc2F)n1
0.68				Cc1cc(C(=O)Nc2ccc(N3CCNCCC3=O)cc2F)n(-c2cc3ccccc3cc2S(C)(=O)=O)n1
0.166				Cc1cc(C(=O)Nc2ccc(N3CCN(C)CC3)cc2)n(-c2ccc3cc(Cl)ccc3c2)n1
0.088				Cc1cc(C(=O)Nc2ccc(N3CCOCC3)cc2)n(-c2ccc3cc(Cl)ccc3c2)n1
0.008	1.7	0.0032		Cc1cc(C(=O)Nc2ccc(-n3ccnc3CN(C)C)cc2F)n(-c2cc3ccccc3cc2S(C)(=O)=O)n1
0.027				Cc1cc(C(=O)Nc2ccc(N3CCCCC3=O)cc2F)n(-c2cc3ccccc3cc2S(C)(=O)=O)n1
0.039				Cc1cc(C(=O)Nc2ncc(-c3ccccc3S(N)(=O)=O)cn2)n(-c2cc3ccccc3cc2F)n1
0.013	> 5			Cc1cc(C(=O)Nc2ccc(C(=O)N(C)C)cc2)n(-c2ccc3cc(Cl)ccc3c2)n1
2.1				Cc1cc(C(=O)Nc2ccc(-n3nccn3)cc2)n(-c2ccc3cc(Cl)ccc3c2)n1
0.026				Cc1cc(C(=O)Nc2ccc(-c3ccccc3C(=N)N(C)C)cc2)n(-c2ccc3cc(Cl)ccc3c2)n1
0.029				Cc1cc(C(=O)Nc2ccc(-c3ccccc3S(N)(=O)=O)cc2F)n(-c2cc3ccccc3cc2F)n1
0.07				Cc1cc(C(=O)Nc2ccc(-c3cccc(CN)c3)cc2)n(-c2ccc3cc(Cl)ccc3c2)n1
0.092				Cc1cc(C(=O)Nc2ccc(-c3cccnc3)cc2F)n(-c2ccc3cc(Cl)ccc3c2)n1
0.005	2	0.0018		Cc1cc(C(=O)Nc2ccc(-c3ccccc3CN(C)C)cc2)n(-c2ccc3cc(Cl)ccc3c2)n1
0.023				Cc1cc(C(=O)Nc2ccc(N3CCOCCC3=O)cc2F)n(-c2cc3ccccc3cc2S(C)(=O)=O)n1
0.036				Cc1cc(C(=O)Nc2ccc(N3CCCNCC3)cc2)n(-c2ccc3cc(Cl)ccc3c2)n1
0.005	4.5	0.0011		Cc1cc(C(=O)Nc2ccc(-c3ccccc3S(N)(=O)=O)cc2F)n(-c2cc3ccccc3cc2S(C)(=O)=O)n1

IC50 (Coagulation factor X [1]) [µM]	Activity (Coagulation factor X [2]) [µM]	Ki (Coagulation factor X [3]) [µM]	other results	SMILES
0.13				Cc1cc(C(=O)Nc2ccc(N3CCNCCC3=O)cc2)n(-c2ccc3cc(Cl)ccc3c2)n1
0.007	2	0.0025		Cc1cc(C(=O)Nc2ncc(-c3ccccc3S(N)(=O)=O)cn2)n(-c2ccc3cc(Cl)ccc3c2)n1
0.003	> 5	0.0034		Cc1cc(C(=O)Nc2ccc(-c3ccccc3S(N)(=O)=O)cc2F)n(-c2ccc3cc(Cl)ccc3c2)n1
0.041				Cc1cc(C(=O)Nc2ccc(N3CCNCC3=O)cc2F)n(-c2cc3ccccc3cc2S(C)(=O)=O)n1
0.047				Cc1cc(C(=O)Nc2ccc(N3CCCCCC3=O)cc2F)n(-c2cc3ccccc3cc2S(C)(=O)=O)n1
0.046				Cc1cc(C(=O)Nc2ccc(-c3ccccc3S(N)(=O)=O)cn2)n(-c2cc3ccccc3cc2S(C)(=O)=O)n1
0.001	5	0.0005		Cc1cc(C(=O)Nc2ccc(N3CCOCC3=O)cc2F)n(-c2ccc3cc(Cl)ccc3c2)n1
0.002	1.7	0.0015	Vd [4]: 22.1 L/kg; IC50 (Plasminogen): > 10 µM; bioavailability [5]: 35.2%; IC50 (Kallikrein-1): 9.7 µM; half-life [6]: 7.2 h; IC50 [7]: > 10 µM; IC50 (Serine protease 1): > 10 µM; clearance [8]: 35.7 mL/min/kg; IC50 [9]: > 10 µM; IC50 (Prothrombin): 5.5 µM	Cc1cc(C(=O)Nc2ccc(-c3ccccc3CN(C)C)cc2F)n(-c2ccc3cc(Cl)ccc3c2)n1
0.006	> 5	0.0018		Cc1cc(C(=O)Nc2ccc(-c3ccccc3S(C)(=O)=O)cc2F)n(-c2ccc3cc(Cl)ccc3c2)n1
0.009	1	0.0017	Vd [4]: 2.6 L/kg; IC50 (Plasminogen): > 10 µM; bioavailability [5]: 18%; IC50 (Kallikrein-1): > 10 µM; half-life [6]: 0.7 h; IC50 [7]: > 10 µM; IC50 (Serine protease 1): > 10 µM; clearance [8]: 41.2 mL/min/kg; IC50 [9]: > 10 µM; IC50 (Prothrombin): > 10 µM	Cc1cc(C(=O)Nc2ccc(-c3ccccc3S(C)(=O)=O)cc2F)n(-c2cc3ccccc3cc2S(C)(=O)=O)n1
0.003	> 5	0.0011		Cc1cc(C(=O)Nc2ccc(N3CCCCC3=O)cc2)n(-c2ccc3cc(Cl)ccc3c2)n1
0.075				Cc1cc(C(=O)Nc2ccc(-c3cccc(C(=N)N)c3)cc2)n(-c2ccc3cc(Cl)ccc3c2)n1
0.008	> 5	0.0028		Cc1cc(C(=O)Nc2ccc(-n3ccnc3CN(C)C)cc2)n(-c2ccc3cc(Cl)ccc3c2)n1
0.112				Cc1cc(C(=O)Nc2ccc(-n3ccnn3)cc2)n(-c2ccc3cc(Cl)ccc3c2)n1
0.38				Cc1cc(C(=O)Nc2ccc(-c3cccc(C(=N)N(C)C)c3)cc2)n(-c2ccc3cc(Cl)ccc3c2)n1
	> 5			Cc1cc(C(=O)Nc2ccc(-c3ccccc3S(N)(=O)=O)cc2)n(-c2ccc3cc(Cl)ccc3c2)n1
0.215				Cc1cc(C(=O)Nc2ccc(-n3cccn3)cc2)n(-c2ccc3cc(Cl)ccc3c2)n1
0.04				Cc1cc(C(=O)Nc2ccc(-c3ccncc3)cc2F)n(-c2ccc3cc(Cl)ccc3c2)n1
	3			Cc1cc(C(=O)Nc2ccc(-n3ccnc3CN(C)C)cc2F)n(-c2ccc3cc(Cl)ccc3c2)n1
0.005	2	0.0019		Cc1cc(C(=O)Nc2ccc(-c3ccccc3S(N)(=O)=O)cn2)n(-c2ccc3cc(Cl)ccc3c2)n1
0.015				Cc1cc(C(=O)Nc2ccc(-n3ccnc3C)cc2F)n(-c2ccc3cc(Cl)ccc3c2)n1
	> 5	0.0014		Cc1cc(C(=O)Nc2ccc(-c3ccccc3S(C)(=O)=O)cc2)n(-c2ccc3cc(Cl)ccc3c2)n1
0.006	> 5	0.0018		Cc1cc(C(=O)Nc2ccc(C(=O)N3CCCC3)cc2)n(-c2ccc3cc(Cl)ccc3c2)n1
0.108				Cc1cc(C(=O)Nc2ccc(-n3ccnc3)cc2)n(-c2ccc3cc(Cl)ccc3c2)n1
0.058				Cc1cc(C(=O)Nc2ccc(N3CCCC3=O)cc2F)n(-c2cc3ccccc3cc2S(C)(=O)=O)n1
0.039				Cc1cc(C(=O)Nc2ccc(-c3ccccc3CN)cc2)n(-c2ccc3cc(Cl)ccc3c2)n1
